Test [1] relates to IL-1β release upon NLRP3 activation in peripheral blood mononuclear cells (PBMC). Briefly: PBMC IC50 determination assay (IL-1β release, LPS priming + ATP stimulation, HTRF). The test is classed as cell-based. To be noted: PBMC from buffy coats; LPS 1 μg/ml 3 h, compound 30 min, ATP 5 mM 1 h; IL-1β by HTRF. Here is the method:
The compounds of the present disclosure were tested for their inhibitory activity against IL-1β release upon NLRP3 activation in peripheral blood mononuclear cells (PBMC).
PBMC were isolated from buffy coats by density gradient centrifugation on Histopaque-1077 (Sigma, cat no. 10771). Isolated cells were seeded into the wells (280,000 cells/well) of a 96-well plate and incubated for 3 h with lipopolysaccharide (LPS, 1 μg/ml diluted 1000× from a 1 mg/ml stock solution). The compounds of the present disclosure were added (a single compound per well) and the cells were incubated for 30 min. Next, the cells were stimulated with ATP (5 mM final concentration diluted 20× from a 100 mM stock solution) for 1 h and the cell culture media from the wells were collected for further analysis.
The release of IL-1β into the media was determined by quantitative detection of IL-1β in the media using HTRF®, CisBio cat. No. 62HIL1BPEH. Briefly, cell culture supernatant were dispensed directly into the assay plate containing antibodies labelled with the HTRF® donor and acceptor. A microplate spectrophotometer (BMG) was used to detect signals at 655 nm and 620 nm. The detection range of IL-1β HTRF® was […].
For orientation: In TR-FRET formats the signal depends on donor and acceptor labels being close together.

The subject of test [2] is IL-1β release upon NLRP3 activation in human whole blood. Briefly: Whole blood (WB) assay (IL-1β release, LPS priming + ATP stimulation, HTRF). The test is classed as cell-based. The note with it: heparin, diluted 9:5 with media, LPS 1 μg/ml 3 h, compound 30 min, ATP 5 mM 1 h, IL-1β by HTRF. The method, then:
The compounds of the present disclosure were tested for their inhibitory activity against IL-1β release upon NLRP3 activation in human whole blood.
Whole blood was drawn from single healthy donors and treated with sodium heparin anticoagulant. Blood was diluted with cell culture media at a 9:5 ratio, seeded in a 96-well plate and incubated for 3 h with lipopolysaccharide (LPS, 1 μg/ml final concentration diluted 1000× from a 1 mg/ml stock solution). The compounds of the present disclosure were added (a single compound concentration per well) and the blood was incubated for 30 min. Next, the blood was stimulated with ATP (5 mM final concentration diluted 20× from a 100 mM stock solution) for 1 h and the cell culture media from the wells were collected for further analysis.
The release of IL-1β into the media was determined by quantitative detection of IL-1β in the media using HTRF®, CisBio cat. No. 62HIL1BPEH. Briefly, cell culture supernatant were diluted as appropriate to bring IL-1β levels within the HTRF® detection range ([…]) and subsequently dispensed into the assay plate containing antibodies labelled with the HTRF® donor and acceptor. A microplate spectrophotometer (BMG) was used to detect signals at 655 nm and 620 nm.

With `CC(C)c1cc(NC(=O)NS(=O)(=O)N(CCN(C)C)c2cnn(C)c2)c(C(C)C)s1` [Compound 18, 3-[2,5-Bis(propan-2-yl)thiophen-3-yl]-1-{[2-(dimethylamino)ethyl](1-methyl-1H-pyrazol-4-yl)sulfamoyl}urea], the IC50 in test [1] lay within 100 to 500 nM; in test [2], 1000 to 3000 nM.
On to `CCc1cc(NC(=O)NS(=O)(=O)N(CCN(C)C)c2cnn(C)c2)c(CC)s1` [Compound 19, 3-(2,5-Diethylthiophen-3-yl)-1-{[2-(dimethylamino)ethyl](1-methyl-1H-pyrazol-4-yl)sulfamoyl}urea], for which the IC50 in test [1] was in the range of 100 to 500 nM; in test [2], 1000 to 3000 nM.
On to `CCc1cc(NC(=O)NS(=O)(=O)N(c2cnn(C)c2)C2CCCN(C)C2)c(CC)o1` (stereo not drawn) [Compound 28, 3-(2,5-Diethylfuran-3-yl)-1-[(1-methyl-1H-pyrazol-4-yl)(1-methylpiperidin-3-yl)sulfamoyl]urea], for which the results for the IC50 in test [1] and in test [2] were 100 to 500 nM and 1000 to 3000 nM, respectively.
Regarding `CCc1cc(CC)c(NC(=O)NS(=O)(=O)N(c2cnn(C)c2)C2CCCN(C)C2)s1` (stereo not drawn) [Compound 29, 3-(3,5-Diethylthiophen-2-yl)-1-[(1-methyl-1H-pyrazol-4-yl)(1-methylpiperidin-3-yl)sulfamoyl]urea], the IC50 fell in the range of 100 to 500 nM in test [1] and 1000 to 3000 nM in test [2].
For the compound `Cc1sc2c(c1NC(=O)NS(=O)(=O)N(c1cnn(C)c1)C1CCCN(C)C1)CCC2` (stereo not drawn) [Compound 32, 1-[(1-Methyl-1H-pyrazol-4-yl)(1-methylpiperidin-3-yl)sulfamoyl]-3-{2-methyl-4H,5H,6H-cyclopenta[b]thiophen-3-yl}urea], the IC50 in test [1] was 100 to 500 nM; in test [2], < 1000 nM.
Take `CC(C)c1sc(C2CC2)cc1NC(=O)NS(=O)(=O)N(c1cnn(C)c1)C1CCCN(C)C1` (stereo not drawn) [Compound 37, 3-[5-Cyclopropyl-2-(propan-2-yl)thiophen-3-yl]-1-[(1-methyl-1H-pyrazol-4-yl)(1-methylpiperidin-3-yl)sulfamoyl]urea]: the results for the IC50 in test [1] and in test [2] were < 100 nM and 1000 to 3000 nM, respectively.
Turning to `CC(C)c1cc(NC(=O)NS(=O)(=O)N(c2cnn(C)c2)C2CCCN(C)C2)c(C2CC2)s1` (stereo not drawn) [Compound 38, 3-[2-Cyclopropyl-5-(propan-2-yl)thiophen-3-yl]-1-[(1-methyl-1H-pyrazol-4-yl)(1-methylpiperidin-3-yl)sulfamoyl]urea], the IC50 is < 100 nM in test [1] and 1000 to 3000 nM in test [2].
As for `CC(C)c1cc(NC(=O)NS(=O)(=O)N(c2cnn(C)c2)C2CCN(C)CC2)c(C(C)C)s1` [Compound 43, 3-[2,5-Bis(propan-2-yl)thiophen-3-yl]-1-[(1-methyl-1H-pyrazol-4-yl)(1-methyl-piperidin-4-yl)sulfamoyl]urea], the IC50 is < 100 nM in test [1] and < 1000 nM in test [2].
Regarding `CC(C)c1cc(NC(=O)NS(=O)(=O)N(c2cnn(C)c2)C2CCCN(C)C2)c(Cl)s1` (stereo not drawn) [Compound 50, 3-[2-Chloro-5-(propan-2-yl)thiophen-3-yl]-1-[(1-methyl-1H-pyrazol-4-yl)(1-methylpiperidin-3-yl)sulfamoyl]urea], the results for the 50% inhibitory concentration (IC50) in test [1] and in test [2] were 500 to 1000 nM and 1000 to 3000 nM, respectively.
As to `CC(C)c1cc(C(C)C)c(NC(=O)NS(=O)(=O)N(c2cnn(C)c2)C2CCCN(C)C2)s1` (stereo not drawn) [Compound 52, 3-[3,5-Bis(propan-2-yl)thiophen-2-yl]-1-[(1-methyl-1H-pyrazol-4-yl)(1-methyl-piperidin-3-yl)sulfamoyl]urea], the IC50 in test [1] was < 100 nM; in test [2], 1000 to 3000 nM.
With `CC(C)c1cc(NC(=O)NS(=O)(=O)N(C[C@@H]2C[C@@H](F)CN2C)c2cnn(C)c2)c(C(C)C)s1` [Compound 53], the IC50 was < 100 nM in test [1] and 1000 to 3000 nM in test [2].
For `CC(C)c1cc(NC(=O)NS(=O)(=O)N(c2cnn(C)c2)[C@@H]2CCCN(C)C2)c(C(C)C)s1` [Compound 54, 3-[2,5-Bis(propan-2-yl)thiophen-3-yl]-1-[(1-methyl-1H-pyrazol-4-yl)[(3R)-1-methylpiperidin-3-yl]sulfamoyl]urea], the IC50 in test [1] is < 100 nM; in test [2], < 1000 nM.
Take `CC(C)c1cc(NC(=O)NS(=O)(=O)N(c2cnn(C(C)C)c2)[C@@H]2CCCN(C)C2)c(C(C)C)s1` [Compound 55, 3-[2,5-Bis(propan-2-yl)thiophen-3-yl]-1-{[(3R)-1-methylpiperidin-3-yl][1-(propan-2-yl)-1H-pyrazol-4-yl]sulfamoyl}urea]: the IC50 in test [1] is < 100 nM; in test [2] it was < 1000 nM.
As to `CC(C)c1cc(NC(=O)NS(=O)(=O)N(c2cnn(C)c2)[C@H]2CCCN(C)C2)c(C(C)C)s1` [Compound 56, 3-[2,5-Bis(propan-2-yl)thiophen-3-yl]-1-[(1-methyl-1H-pyrazol-4-yl)[(3S)-1-methylpiperidin-3-yl]sulfamoyl]urea], the IC50 in test [1] was < 100 nM; in test [2], < 1000 nM.
As to `Cc1sc(C(C)C)cc1NC(=O)NS(=O)(=O)N(c1cnn(C)c1)[C@@H]1CCCN(C)C1` [Compound 57, 1-[(1-Methyl-1H-pyrazol-4-yl)[(3R)-1-methylpiperidin-3-yl]sulfamoyl]-3-[2-methyl-5-(propan-2-yl)thiophen-3-yl]urea], the results for the IC50 in test [1] and in test [2] were 100 to 500 nM and 1000 to 3000 nM, respectively.
As to `CCc1sc(C(C)C)cc1NC(=O)NS(=O)(=O)N(c1cnn(C)c1)[C@@H]1CCCN(C)C1` [Compound 58, 3-[2-Ethyl-5-(propan-2-yl)thiophen-3-yl]-1-[(1-methyl-1H-pyrazol-4-yl)[(3R)-1-methylpiperidin-3-yl]sulfamoyl]urea], the IC50 was < 100 nM in test [1] and < 1000 nM in test [2].
With `CC(C)c1cc(NC(=O)NS(=O)(=O)N(c2cnn(C3CC3)c2)[C@@H]2CCCN(C)C2)c(C(C)C)s1` [Compound 59, 3-[2,5-Bis(propan-2-yl)thiophen-3-yl]-1-[(1-cyclopropyl-1H-pyrazol-4-yl)-[(3R)-1-methylpiperidin-3-yl]sulfamoyl]urea], the figures for the IC50 in test [1] and in test [2] were < 100 nM and 1000 to 3000 nM, respectively.
As for `CC(C)c1sc(Cl)cc1NC(=O)NS(=O)(=O)N(c1cnn(C)c1)[C@@H]1CCCN(C)C1` [Compound 60, 3-[5-Chloro-2-(propan-2-yl)thiophen-3-yl]-1-[(1-methyl-1H-pyrazol-4-yl)-[(3R)-1-methylpiperidin-3-yl]sulfamoyl]urea], the results for the IC50 in test [1] and in test [2] were < 100 nM and < 1000 nM, respectively.
The like results for `CCc1cc(NC(=O)NS(=O)(=O)N(c2cnn(C)c2)[C@@H]2CCCN(C)C2)c(C(C)C)s1` [Compound 61, 3-[5-Ethyl-2-(propan-2-yl)thiophen-3-yl]-1-[(1-methyl-1H-pyrazol-4-yl)[(3R)-1-methylpiperidin-3-yl]sulfamoyl]urea] were, in that order, < 100 nM and 3000 to 10000 nM.
Consider `CCc1cc(NC(=O)NS(=O)(=O)N(C[C@@H]2C[C@@H](F)CN2C)c2cnn(C)c2)c(CC)o1` [Compound 62, 1-(2,5-Diethylfuran-3-yl)-3-({[(2S,4R)-4-fluoro-1-methylpyrrolidin-2-yl]methyl}(1-methyl-1H-pyrazol-4-yl)sulfamoyl)urea], for which the IC50 lay in the range of 500 to 1000 nM in test [1] and 1000 to 3000 nM in test [2].
Regarding `CCc1cc(NC(=O)NS(=O)(=O)N(CCN(C)C)c2cnn(C(C)C)c2)c(CC)o1` [Compound 64, 3-(2,5-Diethylfuran-3-yl)-1-{[2-(dimethylamino)ethyl][1-(propan-2-yl)-1H-pyrazol-4-yl]sulfamoyl}urea], the IC50 in test [1] was in the range of 1000 to 5000 nM; in test [2], 10000 to 20000 nM.
For the compound `CCc1cc(NC(=O)NS(=O)(=O)N(c2cnn(C)c2)C2CCOCC2)c(CC)o1` [Compound 65, 3-(2,5-Diethylfuran-3-yl)-1-[(1-methyl-1H-pyrazol-4-yl)(oxan-4-yl)sulfamoyl]-urea], the IC50 was 1000 to 5000 nM in test [1] and > 20000 nM in test [2].
In the case of `Cc1cc(NC(=O)NS(=O)(=O)N(c2cnn(C)c2)[C@@H]2CCCN(C)C2)c(C(C)C)s1` [Compound 66, 1-[(1-Methyl-1H-pyrazol-4-yl)[(3R)-1-methylpiperidin-3-yl]sulfamoyl]-3-[5-methyl-2-(propan-2-yl)thiophen-3-yl]urea], the figures for the IC50 in test [1] and in test [2] were < 100 nM and < 1000 nM, respectively.
For the compound `Cc1c(C(C)C)sc(C(C)C)c1NC(=O)NS(=O)(=O)N(c1cnn(C)c1)[C@@H]1CCCN(C)C1` [Compound 67, 1-[(1-Methyl-1H-pyrazol-4-yl)[(3R)-1-methylpiperidin-3-yl]sulfamoyl]-3-[4-methyl-2,5-bis(propan-2-yl)thiophen-3-yl]urea], the values for the IC50 in test [1] and in test [2] were 100 to 500 nM and < 1000 nM, respectively.

One may read the IC50 as the point on the concentration scale where inhibition reaches its midpoint.
